In PubChem BioAssay AID1963829 (Molecular Pharmacology Branch, DTP, NCI, 2024) one finds IC50 and viability, T/C data, which are given here for five molecules.

The test system of this assay is 935938-334-R-J1-PDC complex spheroid viability. Nature of the assay: Anticancer human tumor 935938-334-R-J1-PDC patient-derived small intestine adenocarcinoma cell line growth inhibition [POLQ]. The following applies: for viability, T/C: stronger effect = lower value. On the procedure:
Multicellular complex tumor spheroid response to Polymerase (POL) inhibitors (novobiocin, ART-558, RP6685) in combination with a variety of drugs and investigational agents in selected tumor cell lines
The POL inhibitors (novobiocin, ART-558, and RP6685) were evaluated both individually and in combination with standard of care and investigational anticancer small molecules within a complex spheroid model of solid tumors. . Complex spheroids include a stromal component modeled by human endothelial cells (HUVEC) and fibroblasts modeled by human mesenchymal stem cells (MSCs). The concentration ranges selected for each drug and investigational agent were based upon clinically achievable concentrations if the clinical Cmax of the agent was known.
Compounds. The drugs and investigational agents: novobiocin (NSC847541), ART-558 (NSC835418), RP-6685 (NSC848927), peposertib (NSC802822), ceralasertib (NSC780249), elimusertib (NSC800525), camonsertib (NSC841442), AZD-1390 (NSC803789), olaparib (NSC753686), talazoparib (NSC767125), rucaparib (NSC756644), sotorasib (NSC818433), MRTX-1133 (NSC836407), SN-38 (NSC673596), topotecan (NSC609699), epotoside (NSC141540), doxorubicin (NSC123127), gemcitabine (NSC613327), 5-fluorouracil (NSC19893), paclitaxel (NSC125973), vemurafenib (NSC761431), MSA-2 (NSC828583), SN-011 (NSC837082), adavosertib (NSC754352), prexasertib (NSC758257), carboplatin (NSC241240) and oxaliplatin (NSC266046), were obtained from the National Cancer Institute (NCI) Developmental Therapeutics Program Chemical Repository (21). The FDA-approved anticancer drug set is available from the Developmental Therapeutics Program at https://dtp.cancer.gov/organization/dscb/obtaining/. […] The stock solutions were prepared in dimethyl sulfoxide (DMSO, Sigma-Aldrich, St. Louis, MO, cat. D2650), except for the platinum compounds which were prepared in saline (Quality Biological, Gaithersburg, MD, cat. 114-055-101), at 800-fold the tested concentration and stored at -70 degrees C prior to their use. All drugs and investigational agents were tested over a range starting from a high concentration at or near the clinical Cmax and decreasing in half-log increments. If the clinical Cmax for an agent had not been determined, the highest concentration tested was 10 microM, except for SN-38, which was tested at a high concentration of 1 microM.
Cell Culture. All cells were maintained in an incubator at 37 degrees C and 5% CO2 with 95% humidity. The PDC lines were cultured according to standard operating procedures established by the NCI PDMR (https://pdmr.cancer.gov). Table 3 of the manuscript, lists the cell lines along with the number of the three cell types plated to form the mct-spheroids and media for tumor cell growth. After thawing, all PDC lines, except 997537-175-T-J1-PDC and 415267-285-R-J2-PDC, were cultured in Matrigel-coated flasks prepared with a working solution of 1X Ham's F-12 nutrient mix, without supplementation (Thermo Fisher Scientific, cat. 11765054), 100 U/mL penicillin-streptomycin (Thermo Fisher Scientific, cat. 15140122), and 2.5% Matrigel (Corning Inc., Corning, NY, cat. 354248) for the first three passages. The two PDC lines 997537-175-T-J1-PDC and 415267-285-R-J2-PDC were cultured on uncoated flasks. The 857933-349-R-J2-PDC line was cultured in 6C/Colon 1B media containing advanced DMEM/F-12 (Thermo Fisher Scientific, cat. 12634028), 10 mM HEPES (Thermo Fisher Scientific, cat. 15630080), 1X GlutaMAX supplement (Thermo Fisher Scientific, cat. 35050061), 0.1 mg/mL primocin (InvivoGen, San Diego, CA, cat. ant-pm-2), 10% defined fetal bovine serum, heat inactivated (HyClone Laboratories Inc., Logan, UT, cat. SH30070.03HI), 50% L-WRN conditioned media (ATCC, cat. CRL-3276), 1.25 mM N-Acetyl-L-cysteine (Sigma-Aldrich, cat. A9165), 10 mM nicotinamide (Sigma-Aldrich, cat. N0636), 1X B-27 supplement (Thermo Fisher Scientific, cat. 17504044), 1X N-2 supplement (Thermo Fisher Scientific, cat. […]

Where [1] appears, read: curve of first compound, second compound 0.0316 µM.
Where [2] appears, read: curve of first compound, second compound 0.1 µM.
[3] abbreviates: curve of first compound, second compound 0.316 µM.
[4] abbreviates: curve of first compound, second compound 1 µM.
[5] abbreviates: curve of first compound, second compound 3.16 µM.
Where [6] appears, read: curve of first compound, second compound 10 µM.
Setting [7] is: second compound 0.0316 µM, first compound 0.0316 µM.
[8] abbreviates: second compound 0.0316 µM, first compound 0.1 µM.
Where [9] appears, read: second compound 0.0316 µM, first compound 0.316 µM.
Where [10] appears, read: second compound 0.0316 µM, first compound 1 µM.
[11] abbreviates: second compound 0.1 µM, first compound 0.0316 µM.
Setting [12] is: second compound 0.1 µM, first compound 0.1 µM.
[13] abbreviates: second compound 0.1 µM, first compound 0.316 µM.
The mark [14] stands for this setting: second compound 0.1 µM, first compound 1 µM.
Setting [15] is: second compound 0.316 µM, first compound 0.0316 µM.
Setting [16] is: second compound 0.316 µM, first compound 0.1 µM.
Setting [17] is: second compound 0.316 µM, first compound 0.316 µM.
Where [18] appears, read: second compound 0.316 µM, first compound 1 µM.
Where [19] appears, read: second compound 1 µM, first compound 0.0316 µM.
The mark [20] stands for this setting: second compound 1 µM, first compound 0.1 µM.
Where [21] appears, read: second compound 1 µM, first compound 0.316 µM.
[22] abbreviates: second compound 1 µM, first compound 1 µM.
The mark [23] stands for this setting: second compound 3.16 µM, first compound 0.0316 µM.
The mark [24] stands for this setting: second compound 3.16 µM, first compound 0.1 µM.
Setting [25] is: second compound 3.16 µM, first compound 0.316 µM.
Where [26] appears, read: second compound 3.16 µM, first compound 1 µM.
The mark [27] stands for this setting: second compound 10 µM, first compound 0.0316 µM.
Where [28] appears, read: second compound 10 µM, first compound 0.1 µM.
[29] abbreviates: second compound 10 µM, first compound 0.316 µM.
Where [30] appears, read: second compound 10 µM, first compound 1 µM.

As usually defined, the IC50 is the concentration that inhibits the measured activity by half. As a reminder, the viability, T/C is the ratio of treated to control.

Several values for one entry are separate records, joined by “and”; a condition that tells them apart may be missing. Equal values may be shown once.
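Also: spheroids exposed to drugs for seven days before viability read.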
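For viability, T/C in this document: 100% = DMSO vehicle control wells.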

For the molecule `COc1cccc(OCCCN)c1-c1cc(Nc2cnc(C#N)cn2)n[nH]1` + Cc1cccc(N(C)C(=O)C2C(O)CCN2c2nc(C)cc(C(F)(F)F)c2C#N)c1, the IC50 is, setting by setting: under setting [1], 55.9 nM; under setting [2], 50.9 nM; under setting [3], 40.9 nM; under setting [4], 43.7 nM; under setting [5], 40 nM; under setting [6], 38.5 nM. Besides, the viability, T/C was 118% (second compound 0.0316 µM, first compound 0.00316 µM); 94.9% (second compound 0.0316 µM, first compound 0.01 µM); 65.2% under setting [7]; 36.8% under setting [8]; 12.2% under setting [9]; 8.59% under setting [10]. Also, the viability, T/C was 101% (second compound 0.1 µM, first compound 0.00316 µM); 75.2% (second compound 0.1 µM, first compound 0.01 µM); 69.6% under setting [11]; 31% under setting [12]; 9.36% under setting [13]; 10.3% under setting [14]. The viability, T/C by setting is: (second compound 0.316 µM, first compound 0.00316 µM) 96%; (second compound 0.316 µM, first compound 0.01 µM) 95.2%; under setting [15], 48.1%; under setting [16], 35.3%; under setting [17], 10.1%; under setting [18], 10.6%. Further, the viability, T/C is, setting by setting: (second compound 1 µM, first compound 0.00316 µM) 106%; (second compound 1 µM, first compound 0.01 µM) 86%; under setting [19], 60.7%; under setting [20], 28.5%; under setting [21], 9.11%; under setting [22], 9.21%. Besides, the viability, T/C is 138% (second compound 3.16 µM, first compound 0.00316 µM); 90.6% (second compound 3.16 µM, first compound 0.01 µM); 69.5% under setting [23]; 15.7% under setting [24]; 8.96% under setting [25]; 11.1% under setting [26]. In addition, the viability, T/C was 96.5% (second compound 10 µM, first compound 0.00316 µM); 94.8% (second compound 10 µM, first compound 0.01 µM); 57.9% under setting [27]; 11.6% under setting [28]; 11.9% under setting [29]; 9.17% under setting [30].
As to `CCc1c2c(nc3ccc(O)cc13)-c1cc3c(c(=O)n1C2)COC(=O)[C@]3(O)CC`, the viability, T/C was 59.3% and 81% and 86.5% (compound 0.00316 µM); 70.9% and 60% and 64% (compound 0.01 µM); 42.9% and 36.9% and 39.4% (compound 0.0316 µM); 31.1% and 30.2% and 33.9% (compound 0.1 µM); 39.8% and 38.2% and 27.4% (compound 0.316 µM); 35.2% and 33.7% and 25.6% (compound 1 µM). The half-inhibitory concentration (IC50) (curve of compound) is 21.9 nM and 16.3 nM and 20.1 nM.
As for `CC1COCCN1c1cc(-c2ccnn2C)c2ccnc(-c3ccn[nH]3)c2n1` (stereo not given) + COC1C(OC(N)=O)C(O)C(Oc2ccc3c(O)c(NC(=O)c4ccc(O)c(CC=C(C)C)c4)c(=O)oc3c2C)OC1(C)C, the IC50 under setting [1] worked out at 72.7 nM; the IC50 under setting [2] was 59.2 nM; the IC50 under setting [3] turned out to be 136 nM; the IC50 under setting [4] is 51.2 nM; the IC50 under setting [5] was determined as 93 nM; the IC50 under setting [6] worked out at 80.8 nM. Moreover, the viability, T/C was 73.1% under setting [7]; 41% under setting [8]; 20.7% under setting [9]; 13.7% under setting [10]; 13.8% (second compound 0.0316 µM, first compound 3.16 µM); 16.3% (second compound 0.0316 µM, first compound 10 µM). Moreover, the viability, T/C under setting [11] is 66.6%; the viability, T/C under setting [12] is 36%; the viability, T/C under setting [13] is 20.7%; the viability, T/C under setting [14] was 14.3%; the viability, T/C (second compound 0.1 µM, first compound 3.16 µM) is 16.4%; the viability, T/C (second compound 0.1 µM, first compound 10 µM) is 19.7%. Further, the viability, T/C is 73.1% under setting [15]; 61% under setting [16]; 19.9% under setting [17]; 15% under setting [18]; 18% (second compound 0.316 µM, first compound 3.16 µM); 21.3% (second compound 0.316 µM, first compound 10 µM). The viability, T/C by setting is: under setting [19], 59.7%; under setting [20], 36.5%; under setting [21], 18.8%; under setting [22], 14.9%; (second compound 1 µM, first compound 3.16 µM) 14.8%; (second compound 1 µM, first compound 10 µM) 20.3%. Further, the viability, T/C by setting is: under setting [23], 78.9%; under setting [24], 48%; under setting [25], 19.4%; under setting [26], 15%; (second compound 3.16 µM, first compound 3.16 µM) 18.9%; (second compound 3.16 µM, first compound 10 µM) 16.1%. In addition, the viability, T/C was 74.9% under setting [27]; 44.1% under setting [28]; 24.4% under setting [29]; 14.4% under setting [30]; 14.7% (second compound 10 µM, first compound 3.16 µM); 20.7% (second compound 10 µM, first compound 10 µM).
`CNCc1ccc(-c2[nH]c3cc(F)cc4c3c2CCNC4=O)cc1`: the viability, T/C (compound 0.0316 µM) was 114% and 107% and 98.2%; the viability, T/C (compound 0.1 µM) is 119% and 78.9% and 107%; the viability, T/C (compound 0.316 µM) is 92.8% and 87.7% and 94.1%; the viability, T/C (compound 1 µM) is 88% and 96% and 108%; the viability, T/C (compound 3.16 µM) was 94% and 139% and 114%; the viability, T/C (compound 10 µM) is 109% and 116% and 90.9%. Also, where the note is “curve of compound”, the half-inhibitory concentration (IC50) is over 10000 nM.
With `C=CCn1c(=O)c2cnc(Nc3ccc(N4CCN(C)CC4)cc3)nc2n1-c1cccc(C(C)(C)O)n1`, the viability, T/C runs as follows: (compound 0.00316 µM) 104% and 93.2% and 96.4%; (compound 0.01 µM) 122% and 109% and 68.7%; (compound 0.0316 µM) 98.9% and 94.2% and 106%; (compound 0.1 µM) 87.7% and 94.9% and 106%; (compound 0.316 µM) 90.8% and 93.2% and 71.3%; (compound 1 µM) 33.3% and 32.5% and 27.3%. The half-inhibitory concentration (IC50) (curve of compound) is 694 nM and 719 nM and 552 nM.
